Reference: patent publication US6395885B1, “Use of lithium salts of anionic dyes to enhance their light-fastness” (Avecia Limited, priority 1998, dated 2002)

Test: Light-fastness of ink jet prints on Xerox Acid paper faded in a weatherometer (colour difference ΔE)
Assay type: physicochemical
Method: Each ink was prepared by dissolving the Dye shown in the second column of Table 1 (0.35 g) in water (8.45 g) by adding ammonia and adjusting the pH to 9.5. 2-pyrrolidone (0.5 g), thiodiglycol (0.5 g) and Surfynol 465 (0.2 g) were then added and the mixture was stirred at ambient temperature. The resulting solution was filtered through a 0.45 μm filter to give the ink.
Each ink shown in Table 1 was loaded into a HP 560 ink jet printer and was applied to Xerox Acid paper using the ink jet printer. When the resulting prints had dried a portion of the print was mounted, half covered, and faded in an Atlas Ci35a weatherometer.
The light-fastness of the prints was assessed by measuring the colour difference (ΔE) between the faded and unfaded portions of the print using an X-Rite 939 spectrodensitometer. The time shown in the column marked ΔE in Table 1 refers to the number of hours the print was faded for in the weatherometer.
A low ΔE value indicates a small colour change after fading in the weatherometer and therefore a high light-fastness.
The light-fastness of Dyes (A) and (B) and the individual sodium and lithium salts thereof were measured as described in Example 1; namely by ink jet printing an ink containing the each dye onto Xerox Acid paper and fading the prints using an Xrite Weatherometer.

ΔE (50 hours) (ink with 3.5 parts dye printed on Xerox Acid paper, faded 50 hours in Atlas Ci35a weatherometer, low ΔE = high light-fastness): 10.77
Light-Fastness (after 50 hours) (measured as in Example 1 (ΔE), ink jet print on Xerox Acid paper, 50 hours of fading): 11
Structure (SMILES): COc1cc(N=Nc2cccc(S(=O)(=O)O)c2)ccc1NC(=O)Nc1ccc(N=Nc2cccc(S(=O)(=O)O)c2)cc1OC [Comparative (3), C.I. Direct Yellow 132]
